Read-outs that look alike come from different tables or passages of the source.
Experiments:
[1] = system: Trypanosoma brucei rhodesiense (Tbr) (STIB 900 strain) trypomastigotes; assay: in vitro activity against Trypanosoma brucei rhodesiense bloodstream trypomastigotes; assay type: cell-based; details: for IC50: Trypanosoma brucei, read-out: Tbr IC50; for SI (selectivity index): cytotoxicity L6 IC50 versus Tbr IC50
Procedure: (§1) The dichloromethane (CH2Cl2) extract obtained from leaves of V. cinerascens was tested for in vitro antiprotozoal activity against Trypanosoma brucei rhodesiense (Tbr) (STIB 900 strain) trypomastigotes, T. cruzi (Tcr) (Tulahuen C4 strain) amastigotes, Leishmania donovani (Ldon) (MHOM-ET-67/L82 strain) axenic amastigotes, and Plasmodium falciparum (Pf) (NF54 strain) intra-erythrocytic forms. It was also evaluated for in vitro cytotoxicity against mammalian cells, specifically the rat-skeletal myoblast cell line L6. […] Therefore, the CH2Cl2 extract was fractionated by silica gel column chromatography and representative fractions were subjected to bioactivity testing against Tbr (STIB 900 strain) trypomastigotes.
(§2) In vitro bioactivity tests were performed as previously described against Tbr (bloodstream trypomastigotes, STIB 900 strain), Tcr (amastigotes, Tulahuen C4 strain), Ldon (axenic amastigotes, MHOM-ET-67/L82 strain), and Pf (intraerythrocytic forms, NF54 strain), and the cytotoxicity test was conducted against mammalian cells (L6 cell line from rat-skeletal myoblasts) at the Swiss Tropical and Public Health Institute (Swiss TPH, Basel, Switzerland).

[2] = in vitro cytotoxicity against mammalian cells (L6); assay type: cell-based, rat
Procedure: as §1, §2

[3] = system: Trypanosoma brucei rhodesiense (Tbr) (STIB 900 strain) trypomastigotes; parameters: method as in PMID 28397756; details: isolated from V. lasiopus in previous study; read-out: in vitro antiTbr activity IC50; cited from earlier work
[4] = L6 cell line from rat-skeletal myoblasts, means of two independent determinations ± absolute deviation, read-out: Cytotoxicity IC50
[5] = bloodstream trypomastigotes, STIB 900 strain, means of two independent determinations ± absolute deviation

Nc1nc(N)nc(Nc2ccc([As]3SCC(CO)S3)cc2)n1 (stereo not drawn) [melarsoprol, reference compound]
IC50 [1]: 0.003 ± 0.001 µM

COc1cc([C@@H]2c3cc4c(cc3[C@H](O)[C@H]3COC(=O)[C@H]23)OCO4)cc(OC)c1OC [podophyllotoxin, reference compound]
IC50 [2, 4]: 0.007 ± 0.001 µM

C=C(C)C(=O)OC1CC23OC2CCC(=CC2OC(=O)C(C)C21)COC3O (stereo not drawn) [Compound 4, 11β,13-dihydrovernolide]
IC50 [1, 5]: 17 µM
SI (selectivity index) [1]: 0.8
IC50 [2, 4]: 13 ± 2 µM

C=C(CO)C(=O)O[C@H]1C[C@@]2(CO)O[C@@H]2CC/C(C=O)=C/[C@H]2OC(=O)C(=C)[C@H]12 [Compound 8, vernocinerascolide]
IC50 [1, 5]: 4.8 ± 1.1 µM
SI (selectivity index) [1]: 27
IC50 ([2]; rat): 128 ± 1 µM

C=C(CO)C(=O)OC1CC23OC2CCC(=CC2OC(=O)C(C)C21)COC3O (stereo not drawn) [Compound 6, 11β,13-dihydrohydroxyvernolide]
IC50 [1, 5]: 15 µM
SI (selectivity index) [1]: 3.2
IC50 ([2]; rat): 49 ± 1 µM

C=C(C)C(=O)OC1CC23OC2CCC(=CC2OC(=O)C(=C)C21)COC3O (stereo not drawn) [Compound 5, vernolide]
IC50 [1, 5]: 0.5 ± 0.01 µM
SI (selectivity index) [1]: 13
IC50 [2, 4]: 6.9 µM

C=C(CO)C(=O)OC1CC23OC2CCC(=CC2OC(=O)C(=C)C21)COC3O (stereo not drawn) [Compound 7, hydroxyvernolide]
IC50 [1, 5]: 5 µM
SI (selectivity index) [1]: 4.3
IC50 ([2]; rat): 22 ± 1 µM

vernodalol [Compound 1]
IC50 [3]: 0.26 µM

C=C[C@@]12COC(=O)C(=C)[C@@H]1[C@H]1OC(=O)[C@@H](C)[C@@H]1[C@@H](OC(=O)C(=C)CO)C2 [Compound 3, 11β,13-dihydrovernodalin]
IC50 [1, 5]: 1.1 ± 0.3 µM
SI (selectivity index) [1]: 4.2
IC50 ([2]; rat): 4.7 ± 0.4 µM

C=C[C@@]12COC(=O)C(=C)[C@@H]1[C@H]1OC(=O)C(=C)[C@@H]1[C@@H](OC(=O)C(=C)CO)C2 [Compound 2, vernodalin]
IC50 [1, 5]: 0.16 ± 0.04 µM
SI (selectivity index) [1]: 35
IC50 ([2]; rat): 5.6 µM

— paper PMC6017816, “Sesquiterpene Lactones from Vernonia cinerascens Sch. Bip. and Their in Vitro Antitrypanosomal Activity” (Molecules : A Journal of Synthetic Chemistry and Natural …, 2018)
